From PubChem BioAssay AID2742 (NMMLSC, 2010)
“And” between values parts separate entries of the source, which are not always exact repeats. Equal entries are not always repeated. The source made the active and inactive calls.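 The calls were made as follows: active = fitted half-maximal concentration for changing background-corrected GFP signal at or below a set limit; inactive = the rest.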

Assay: modulators of MEP2-GFP levels in yeast, dose response, S. cerevisiae, flow cytometry GFP, MLPCN hits (AID 2742);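 also: GFP tag reports level of MEP2 protein as a downstream target of TOR signalling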
Conditions: S. cerevisiae MEP2-GFP strain, flow cytometry fluorescence, 3 h; at 33 µM (top of the series)

Row | SMILES | GFP fluorescence (kMESF), higher = increase
1 | O=S(=O)(c1ccccc1)c1ccc(C(F)(F)F)cn1 | 2.27 kMESF (inactive)
2 | CCCCC1OC23CCCCC2C(C#N)(C(=N)O3)C1(C#N)C#N (centres undefined) | 3.37 kMESF (inactive)
3 | CCCN1CCc2c(sc(NC(=S)NC(=O)c3ccccc3)c2C#N)C1 | 4.04 kMESF (inactive)
4 | CC1=C/C(=N\OS(=O)(=O)c2ccccc2)C(C(C)C)=CC1=O | 8.38 kMESF (inactive)
5 | N#Cc1c2ccc([N+](=O)[O-])cc2[n+]([O-])n1-c1ccccc1 | 1.82 kMESF (inactive)
6 | COc1cccc2sc(Nc3nc(-c4ccccn4)cs3)nc12 | 5.3 kMESF (inactive)
7 | CC(=O)N(\C=C/C=C/C=C1\Sc2ccccc2C1=O)c1ccccc1 | 8.76 kMESF (inactive)
8 | CCN1C(=O)/C(=C\C(=O)c2cccs2)c2cc(Br)ccc21 | 9.04 kMESF (inactive)
9 | CCc1cc(C(=O)Nc2nc(-c3ccccn3)cs2)sc1C | 6.18 kMESF (inactive)
10 | CCOC(=O)c1c(C)oc2c1c(C(c1cccnc1)N1CCOCC1)c(O)c1ccccc12 (centres undefined) | 4.43 kMESF (inactive)
11 | COc1ccc(C(=O)NC(=S)NNC(=O)CCc2ccccc2)cc1 | 3.68 kMESF (inactive)
12 | CC(C)(C)C(=O)NC(=S)NNC(=O)c1sc2ccccc2c1Cl | 4.68 kMESF (inactive)
13 | O=C(OCn1ncc(Br)c(Br)c1=O)c1ccc(F)cc1 | 5.15 kMESF (inactive)
14 | CC(C)[C@]1(c2ccccc2)ON(c2ccccc2C(F)(F)F)C1=O | 2.87 kMESF (inactive)
15 | O=C(c1ccccn1)c1conc1C(=O)c1ccc(Br)cc1 | 2.83 kMESF (inactive)
16 | COc1cc(C=C2C(=O)c3ccccc3C2=O)cc(OC)c1 | 2.05 kMESF (inactive)
17 | CCOC(=O)/C(=C\c1cn(C)c2ccccc12)[N+](=O)[O-] | 6.34 kMESF (inactive)
18 | N/C(Cc1ccc(Cl)c(Cl)c1)=N\OC(=O)c1cccs1 | 3.66 kMESF (inactive)
19 | COc1cccc(N=Cc2nc(-c3ccccc3)oc2OC(C)=O)c1 | 3.64 kMESF (inactive)
20 | N/C(Cc1ccc(Cl)cc1)=N\OC(=O)c1ccccc1 | 3.99 kMESF (inactive)
21 | COc1ccc(N=Cc2nc(-c3ccccc3)oc2OC(C)=O)cc1 | 3.51 kMESF (inactive)

Row | SMILES | GFP fluorescence (kMESF), higher = increase
22 | COc1cccc(C(=O)Nc2nnc(-c3ccc(Cl)cc3)o2)c1 | 4.71 kMESF (inactive)
23 | Cc1cc(C)c2c(c1)/C(=C/C(=O)c1ccc(Br)s1)C(=O)N2 | 3.51 kMESF (inactive)
24 | COC(=O)CCCC1=CC2=CC(=O)C(C)(OC(=O)CCc3ccccc3)C(=O)C2=CO1 (centres undefined) | 1.97 kMESF (inactive)
25 | CC(C)(C)n1nc(-c2ccc(F)cc2)c2c(N)ncnc21 | 4.89 kMESF (inactive)
26 | COc1ccc(N2C(=O)C(Cl)=C(Nc3c(C)n(C)n(-c4ccccc4)c3=O)C2=O)cc1 | 2.4 kMESF (inactive)
27 | CC1=NOC(=O)/C1=C\c1ccc(-c2cc(Cl)ccc2Cl)o1 | 4.04 kMESF (inactive)
28 | CC1(C)OC(c2ccccc2)=C/C(=C/C=C2C(=O)NC(=S)NC2=O)O1 | 2.7 kMESF (inactive)
29 | O=[N+]([O-])c1ccc(Sc2nc3ccccc3o2)c([N+](=O)[O-])c1 | 2.65 kMESF (inactive)
30 | Cc1ccc(/C=C2/SC(=S)N(C3CCCCC3)C2=O)o1 | 4.94 kMESF (inactive)
31 | O=C1/C(=C\c2ccc(O)c(O)c2)SC(=S)N1Cc1ccccc1 | -21.1 kMESF (inactive)
32 | CCCCCCCCCCCCCCCC[n+]1cccc2ccccc21 | 1.62 kMESF (inactive)
33 | CCN(CC)c1ccc(/C=C2/C(=O)c3ccc(C(=O)O)cc3C2=O)cc1 | 3.08 kMESF (inactive)
34 | O=C(OCC(=O)N1CCN(C(=O)c2ccco2)CC1)c1cc(-c2ccc(Cl)c(Cl)c2Cl)nc2ccccc12 | 4.51 kMESF (inactive)
35 | CC(=O)Oc1oc(-c2ccccc2)nc1C=Nc1ccc(N(C)C)cc1 | 3.44 kMESF (inactive)
36 | COc1ccc(Cl)cc1C(Nc1cccnc1)c1ccc2cccnc2c1O (centres undefined) | 5.91 kMESF (inactive)
37 | COc1ccc(N=Nc2ccc(O)c3ncccc23)cc1 | 4.94 kMESF (inactive)
38 | COc1cc(NC(=O)c2ccccc2[N+](=O)[O-])ccc1NC(=O)c1cc2ccccc2o1 | 2.3 kMESF (inactive)
39 | COc1ccccc1N=Cc1nc(-c2ccccc2)oc1OC(C)=O | 4.52 kMESF (inactive)
40 | COc1ccc(NC2=C(Cl)C(=O)N(CCc3ccccc3)C2=O)cc1 | 2.7 kMESF (inactive)
41 | Cc1ccc2[nH]cc(/C=C/c3cc[n+](C)cc3)c2c1 | 4.2 kMESF (inactive)
42 | N#Cc1ccc(N=c2ssnc2Cl)cc1 | 3.37 kMESF (inactive)

Row | SMILES | GFP fluorescence (kMESF), higher = increase
43 | CC(C)[C@@]1(c2ccccc2)ON(c2ccccc2C(F)(F)F)C1=O | 2.37 kMESF (inactive)
44 | O=C(Oc1cccc2cccnc12)c1ccc(Br)o1 | 1.82 kMESF (inactive)
45 | O=[N+]([O-])c1cnc(Sc2ccncn2)s1 | 3.07 kMESF (inactive)
46 | C/C(=N/NC(=O)c1ccc(C(C)(C)C)cc1)c1ccccn1 | 5.35 kMESF (inactive)
47 | O=c1c2cc(Cl)ccc2nc(-c2ccc([N+](=O)[O-])cc2)n1O | 4.58 kMESF (inactive)
48 | CN(c1ccccc1)c1ccc(/C=c2\s/c(=C(/C#N)C(=O)C(C)(C)C)n(Cc3ccco3)c2=O)cc1 | 13.7 kMESF (inactive)
49 | COc1cc(NC(=O)c2cccc(C)c2)ccc1NC(=O)c1cc2ccccc2o1 | 2.2 kMESF (inactive)
50 | Cc1ccc(C(=O)O/N=C(\N)Cc2cccs2)c(Cl)c1 | 4.31 kMESF (inactive)
51 | CC(=O)Oc1cccc(N2C(=O)c3cccc4c([N+](=O)[O-])ccc(c34)C2=O)c1 | 7.84 kMESF (inactive)
52 | CN(O)/C=c1/ccc2c(n1)C(=O)C=CC=2 | 3.88 kMESF (inactive)
53 | COc1cc(N=c2ssnc2Cl)c(OC)cc1Cl | 6.31 kMESF (inactive) and 6.98 kMESF (inactive)
54 | O=C(Nc1nc(-c2ccccn2)cs1)C1COc2ccccc2O1 (centres undefined) | 5.21 kMESF (inactive)
55 | Cc1cc(C(=O)COC(=O)c2ccc[nH]c2=O)c(C)n1-c1ccccc1F | 1.88 kMESF (inactive)
56 | CC(C)(C)c1nnc(N/N=C/c2cc(Br)ccc2O)n(N)c1=O | 2.57 kMESF (inactive)
57 | CCc1ccc(/C=C/C(=O)c2cc(Br)ccc(=O)c2O)cc1 | 5.16 kMESF (inactive)
58 | O=c1c2cnn(-c3ccccc3)c2ncn1Cc1ccco1 | 1.97 kMESF (inactive)
59 | CC(C)[C@@]1(c2ccc(Cl)cc2)ON(c2ccccc2C(F)(F)F)C1=O | 2.87 kMESF (inactive)
60 | COc1ccccc1[C@]1(C)ON(c2ccccc2C(F)(F)F)C1=O | 5.08 kMESF (inactive)
61 | CCCOc1ccc(C(=O)NNC(=S)NC(=O)CC)cc1 | 4.12 kMESF (inactive)
62 | COc1cc(/C=C2/C(=O)ON=C2c2ccccc2)ccc1O | 3.68 kMESF (inactive)
63 | CN1CCN(C(=O)c2cc(COc3c(F)cccc3F)on2)CC1c1ccccc1 (centres undefined) | 5.87 kMESF (inactive)

Row | SMILES | GFP fluorescence (kMESF), higher = increase
64 | CCC1(c2ccccc2)ON(c2c(Br)cccc2Br)C1=O (centres undefined) | 3.17 kMESF (inactive)
65 | O=C1C2C3C=CC(CO)(O3)C2C(=O)N1c1ccccc1-c1ccccc1 (centres undefined) | 5.17 kMESF (inactive)
66 | Cc1ccc(/C=C2/C(=O)ON=C2c2ccccc2)o1 | 3.11 kMESF (inactive)
67 | N/C(=N\OC(=O)c1cc(Br)ccc1Cl)c1ccccn1 | 5.31 kMESF (inactive)
68 | O=C(COc1ccccc1)N1CCN(c2ncnc3c2cnn3-c2ccccc2)CC1 | 1.97 kMESF (inactive)
69 | O=C(O)c1ccn2c(C(=O)c3ccccc3)c(-c3ccccc3)cc2c1 | 3.13 kMESF (inactive)
70 | C=CCn1c(C)c(/C=C/c2cc[n+](C)cc2)c2ccccc21 | 5.92 kMESF (inactive)
71 | Cc1cccc(/C=C/C(=O)c2ccc([N+](=O)[O-])o2)c1 | 5.78 kMESF (inactive)
72 | CC(Oc1cc2oc(=O)c3c(c2cc1Cl)CCC3)C(=O)NCCN1CCOCC1 (centres undefined) | 2.37 kMESF (inactive)
73 | Oc1c(CN2CCN(c3ccccc3)CC2)cc(Br)c2cccnc12 | 7.37 kMESF (inactive)
74 | O=C(OCC(=O)N1CCN(C(=O)c2ccco2)CC1)c1cc(-c2ccccc2)nc2ccccc12 | 3.96 kMESF (inactive) and 2.66 kMESF (inactive)
75 | Cc1c(Br)c(=O)oc2c(Br)c(O)c(O)cc12 | 2.07 kMESF (inactive)
76 | C/C(=N\Nc1ncnc2sc(C)c(C)c12)c1ccccn1 | 38.2 kMESF (inactive)
77 | CCOc1ccc(N2C(=O)/C(=C\c3cccs3)C(=O)NC2=S)cc1 | 3.57 kMESF (inactive)
78 | CCOC(=O)c1ccc(N=Cc2nc(-c3ccccc3)oc2OC(C)=O)cc1 | 5.65 kMESF (inactive)
79 | COc1ccccc1OCCCc1c(C)n[nH]c1C | 3.47 kMESF (inactive)
80 | O=C(OCC(=O)N1CCN(C(=O)c2ccco2)CC1)c1cc(-c2ccc(F)cc2)nc2ccccc12 | 4.46 kMESF (inactive) and 3.18 kMESF (inactive)
81 | O=C1ON=C(c2ccc(Cl)cc2)/C1=C/c1ccc(O)cc1 | 3.61 kMESF (inactive)
82 | O=C(NNC(=S)NC(=O)c1ccco1)c1ccc(F)cc1 | 4.11 kMESF (inactive)
83 | COc1ccc([N+](=O)[O-])c(S(=O)(=O)c2ccc(Cl)cc2)n1 | 4.42 kMESF (inactive)
84 | Cc1cc2ccccn2c1C(=O)c1ccc([N+](=O)[O-])o1 | -12.4 kMESF (inactive)
